Measured values taken from PubChem BioAssay (NCI).
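Briefly, cells in 96-well plates were exposed to five compound concentrations for 48 h, and endpoints were estimated by linear interpolation. TGI denotes the concentration required for complete inhibition of growth.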

What was measured:
Test in all cases: DTP human tumour cell line panel, 48 h
[1] = system: 786-0 renal
[2] = system: A549 NSCLC
[3] = system: ACHN renal
[4] = system: CAKI-1 renal
[5] = system: CCRF-CEM leukemia
[6] = system: COLO 205 colon
[7] = system: DLD-1 colon
[8] = system: DMS 114 small cell lung
[9] = system: DMS 273 small cell lung
[10] = system: EKVX NSCLC
[11] = system: HCC-2998 colon
[12] = system: HCT-116 colon
[13] = system: HCT-15 colon
[14] = system: HL-60(TB) leukemia
[15] = system: HOP-18 NSCLC
[16] = system: HOP-62 NSCLC
[17] = system: HOP-92 NSCLC
[18] = system: HT29 colon
[19] = system: IGROV1 ovarian
[20] = system: K-562 leukemia
[21] = system: KM12 colon
[22] = system: KM20L2 colon
[23] = system: LXFL 529 NSCLC
[24] = system: M14 melanoma
[25] = system: MALME-3M melanoma
[26] = system: MOLT-4 leukemia
[27] = system: NCI-H226 lung
[28] = system: NCI-H23 lung
[29] = system: NCI-H460 lung
[30] = system: NCI-H522 lung
[31] = system: OVCAR-3 ovarian
[32] = system: OVCAR-4 ovarian
[33] = system: OVCAR-5 ovarian
[34] = system: OVCAR-8 ovarian
[35] = system: RPMI-8226 leukemia
[36] = system: RXF 393 renal
[37] = system: RXF-631 renal
[38] = system: SF-268 CNS
[39] = system: SF-295 CNS
[40] = system: SF-539 CNS
[41] = system: SK-MEL-2 melanoma
[42] = system: SK-MEL-28 melanoma
[43] = system: SK-MEL-5 melanoma
[44] = system: SK-OV-3 ovarian
[45] = system: SN12C renal
[46] = system: SNB-19 CNS
[47] = system: SNB-75 CNS
[48] = system: SNB-78 CNS
[49] = system: SR leukemia
[50] = system: SW-620 colon
[51] = system: U251 CNS
[52] = system: UACC-257 melanoma
[53] = system: UACC-62 melanoma
[54] = system: UO-31 renal
[55] = system: A498 renal
[56] = system: LOX IMVI melanoma
[57] = system: M19-MEL melanoma
[58] = system: TK-10 renal
[59] = system: XF 498 CNS

Measured: TGI

Cc1nc(-c2ccccc2)cc2c1c(=O)oc1ccccc12
not listed: [55] | [56] | [57] | [58] | [59]
> 100 µM: all other assays above

CC(=O)C1C(=O)NC(=O)C1=O (centres undefined)
not listed: [2] | [5] | [7] | [14] | [26] | [37] | [49]
> 100 µM: all other assays above

COc1ccc(N/N=C(\CCN(C)C)c2ccccc2)cc1
3.8 µM: [23]
15.6 µM: [49]
23.5 µM: [5]
26.9 µM: [48]
12.9 µM: [14]
3.69 µM: [40]
44 µM: [26]
7.31 µM: [20]
4.84 µM: [3]
11.9 µM: [7]
14.5 µM: [46]
18 µM: [21]
13.5 µM: [57]
9.77 µM: [16]
1.71 µM: [22]
23.6 µM: [18]
29.7 µM: [36]
17.2 µM: [45]
19.7 µM: [28]
7.83 µM: [42]
3.99 µM: [54]
6.02 µM: [58]
11.4 µM: [31]
27.2 µM: [34]
7.74 µM: [56]
27.6 µM: [8]
24.2 µM: [24]
10.9 µM: [50]
1.65 µM: [39]
18.9 µM: [41]
6.23 µM: [53]
9.74 µM: [44]
16.4 µM: [52]
35.2 µM: [25]
91.7 µM: [33]
30 µM: [30]
12.4 µM: [1]
4.55 µM: [51]
> 100 µM: [15] | [38]
13.8 µM: [12]
17.1 µM: [32]
29.6 µM: [55]
4.57 µM: [13]
7.84 µM: [6]
17.8 µM: [19]
11.1 µM: [9]
21.2 µM: [43]
53 µM: [47]
10.8 µM: [29]
7.5 µM: [35]
56.9 µM: [10]

O/N=C1/C(=C/c2ccc(Oc3ccccc3)cc2)CCCC1C(NO)c1ccc(Oc2ccccc2)cc1 (centres undefined)
63.3 µM: [28]
76.4 µM: [54]
52.2 µM: [36]
96.7 µM: [45]
56.3 µM: [17]
33.2 µM: [26]
76.1 µM: [35]
36.7 µM: [43]
29.1 µM: [56]
24.6 µM: [12]
25.6 µM: [14]
61.2 µM: [5]
35.8 µM: [6]
26.7 µM: [22]
88.6 µM: [4]
30.5 µM: [18]
not listed: [30] | [49] | [55]
> 100 µM: all other assays above
